This is an account of results in patent US8962825B2, “Hydroxamates as inhibitors of histone deacetylase” (GlaxoSmithKline Intellectual Property Development Limited, priority 2006, dated 2015).

For assay [1], the target named is T1, histone deacetylase activity (HeLa nuclear extract).
T1 construct: Histone deacetylase activity from crude nuclear extract derived from HeLa cells was used for screening
The assay can be described thus: Histone deacetylase activity (Biomol Fluor de Lys HDAC fluorescent activity assay). As to conditions: Fluor de Lys substrate. The format is biochemical. Here is the method: The ability of compounds to inhibit histone deacetylase activities was measured using the commercially available HDAC fluorescent activity assay from Biomol. In brief, the Fluor de Lys™ substrate, a lysine with an epsilon-amino acetylation, is incubated with the source of histone deacetylase activity (HeLa nuclear extract) in the presence or absence of inhibitor. Deacetylation of the substrate sensitises the substrate to Fluor de Lys™ developer, which generates a fluorophore. Thus, incubation of the substrate with a source of HDAC activity results in an increase in signal that is diminished in the presence of an HDAC inhibitor.
Data are expressed as a percentage of the control, measured in the absence of inhibitor, with background signal being subtracted from all samples, as follows: % activity=[(S^i−B)/(S^o−B)]×100 where S^i is the signal in the presence of substrate, enzyme and inhibitor, S^o is the signal in the presence of substrate, enzyme and the vehicle in which the inhibitor is dissolved, and B is the background signal measured in the absence of enzyme.
(§1) IC50 values were determined by non-linear regression analysis, after fitting the results of eight data points to the equation for sigmoidal dose response with variable slope (% activity against log concentration of Compound), using Graphpad Prism software.
Histone deacetylase activity from crude nuclear extract derived from HeLa cells was used for screening. The preparation, purchased from 4C (Seneffe, Belgium), was prepared from HeLa cells harvested whilst in exponential growth phase. The nuclear extract was prepared according to the methodology described by J. D. Dignam, Nucl. Acid. Res., 1983, 11, 1475-1489, snap frozen in liquid nitrogen and stored at −80° C. The final buffer composition was 20 mM Hepes, 100 mM KCl, 0.2 mM EDTA, 0.5 mM DTT, 0.2 mM PMSF and 20% (v/v) glycerol.

The subject of a further assay is U937 cells. The assay can be described thus: U937 cell inhibition assay (WST-1 cell viability). Format: cell-based. The following applies: Homo sapiens, U-937, 72-96 h. Here is the method:
(§2) Cancer cell lines (U937 and HUT) growing in log phase were harvested and seeded at 1000-2000 cells/well (100 μl final volume) into 96-well tissue culture plates. Following 24 h of growth cells were treated with Compound. Plates were then re-incubated for a further 72-96 h before a WST-1 cell viability assay was conducted according to the suppliers (Roche Applied Science) instructions.
(§3) Data were expressed as a percentage inhibition of the control, measured in the absence of inhibitor, as follows: % inhibition=100−[(S^i/S^o)×100] where S^i is the signal in the presence of inhibitor and S^o is the signal in the presence of DMSO.
(§4) Dose response curves were generated from 8 concentrations (top final concentration 10 μM, with 3-fold dilutions), using 6 replicates.
(§5) IC50 values were determined by non-linear regression analysis, after fitting the results to the equation for sigmoidal dose response with variable slope (% activity against log concentration of Compound), using Graphpad Prism software.
In general terms: Formazan colour is commonly taken as a measure of viable cells.

The next assay relates to HUT cells. The assay can be described thus: HUT cell inhibition assay (WST-1 cell viability). As to conditions: 72-96 h. The format is cell-based. Here is the method: as §2, §3, §4, §5
The next assay has as its system HeLa cells. In words: HeLa cell inhibition assay (sulphorhodamine B cell viability). Format: cell-based. As to conditions: Homo sapiens, 72 h, SRB. On the procedure: HeLa cells growing in log phase were harvested and seeded at 1000 cells/well (200 μl final volume) into 96-well tissue culture plates. Following 24 h of cell growth cells were treated with Compounds (final concentration of 20 μM). Plates were then re-incubated for a further 72 h before a sulphorhodamine B (SRB) cell viability assay was conducted according to the methodology described by Skehan et al, J. Natl. Canc. Inst., 1990, 82, 1107-1112.
Data were expressed as a percentage inhibition of the control, measured in the absence of inhibitor, as follows:— % inhibition=100−[(S^i/S^o)×100] where S^i is the signal in the presence of inhibitor and S^o is the signal in the presence of DMSO.
as §1

Consider `CC(C)C[C@H](NC1CCN(c2ncc(C(=O)NO)cn2)CC1)C(=O)O` [Example 2, N-{1-[5-(hydroxycarbamoyl)pyrimidin-2-yl]piperidin-4-yl}-L-leucine], for which the IC50 in assay [1] is 101 to 1000 nM.

In the case of `O=C(NO)c1cnc(N2CCC(N[C@@H](CO)C(=O)OC3CCCC3)CC2)nc1` [Example 9], the IC50 with U937 cells was 331 to 3300 nM; with HUT cells, 331 to 3300 nM; with HeLa cells it was above 3300 nM.

As to `CC(C)(C)OCC(NCC1C2CN(c3ncc(C(=O)NO)cn3)CC12)C(=O)OC1CCCC1` (stereo not drawn) [Example 12], the IC50 was below 330 nM in the assay on U937 cells, 331 to 3300 nM with HUT cells and 331 to 3300 nM in the assay on HeLa cells.

For `O=C(NO)c1cnc(N2CC3C(CN[C@H](C(=O)O)C4CCCCC4)C3C2)nc1` (stereo partly drawn) [Example 15, (2S)-cyclohexyl[({3-[5-(hydroxycarbamoyl)pyrimidin-2-yl]-3-azabicyclo[3.1.0]hex-6-yl}methyl)amino]acetic acid], in assay [1], the IC50 was in the range of 101 to 1000 nM.

For the compound `CC(C)C[C@H](NCC1CCN(c2ncc(C(=O)NO)cn2)CC1)C(=O)OC1CCCC1` [Example 16], the IC50 with U937 cells is below 330 nM; in the assay with HUT cells, below 330 nM; with HeLa cells, 331 to 3300 nM.

Consider `O=C(NO)c1cnc(N2CCC(CN[C@H](C(=O)O)C3CCCCC3)CC2)nc1` [Example 19, (2S)-cyclohexyl[({1-[5-(hydroxycarbamoyl)pyrimidin-2-yl]piperidin-4-yl}methyl)amino]acetic acid], for which, in assay [1], the IC50 is below 100 nM.

As to `O=C(NO)c1cnc(N2CCC(CN[C@H](C(=O)OC3CCCC3)c3ccccc3)CC2)nc1` [Example 20], the IC50 in the assay with U937 cells is below 330 nM; in the assay with HUT cells it was 331 to 3300 nM; in the assay with HeLa cells, 331 to 3300 nM.

For the compound `CC(C)(C)OC[C@H](NCC1CCN(c2ncc(C(=O)NO)cn2)CC1)C(=O)OC1CCCC1` [Example 22], the values for the IC50 in the assay on U937 cells, in the assay on HUT cells and in the assay on HeLa cells were below 330 nM, below 330 nM and 331 to 3300 nM, respectively.

In the case of `O=C(NO)c1cnc(N2CCC(CN[C@@H](CO)C(=O)OC3CCCC3)CC2)nc1` [Example 24], the IC50 was below 330 nM in the assay with U937 cells, below 330 nM with HUT cells and 331 to 3300 nM in the assay with HeLa cells.

As for `O=C(NO)c1cnc(N2CCC(CN[C@H](C(=O)OC3CCCC3)c3cccc4ccccc34)CC2)nc1` [Example 26], the IC50 with U937 cells was 331 to 3300 nM; with HUT cells, 331 to 3300 nM; in the assay on HeLa cells it was above 3300 nM.

In assay [1], `CC(C)C[C@H](NCc1ccc(CNC2CCN(c3ncc(C(=O)NO)cn3)CC2)cc1)C(=O)O` [Example 28, N-{-4-[({1-[5-(hydroxycarbamoyl)pyrimidin-2-yl]piperidin-4-yl}amino)methyl]benzyl}-L-leucine] had an IC50 of 101 to 1000 nM.

Compound `O=C(NO)c1cnc(N2CCC(NCc3ccc(CN[C@H](C(=O)OC4CCCC4)c4ccccc4)cc3)CC2)nc1` [Example 30] had an IC50 in assay [1] below 100 nM.

In the case of `O=C(NO)c1cnc(N2CCC(NCc3ccc(CN[C@H](C(=O)OC4CCCC4)c4ccccc4)cc3)CC2)nc1` [Example 32], the IC50 in assay [1] lay in the range of 101 to 1000 nM.

For `O=C(NO)c1cnc(N2CCC(NCc3ccc(CN[C@H](C(=O)OC4CCCC4)c4ccccc4)cc3)CC2)nc1` [Example 34], the IC50 in assay [1] was below 100 nM.

For the compound `CC(C)C[C@H](NCc1ccc(CNCC2CCN(c3ncc(C(=O)NO)cn3)CC2)cc1)C(=O)OC1CCCC1` [Example 36], the IC50 in the assay on U937 cells, in the assay on HUT cells and in the assay with HeLa cells was below 330 nM throughout.

Take `O=C(NO)c1cnc(N2CCC(CNCc3ccc(CN[C@H](C(=O)O)C4CCCCC4)cc3)CC2)nc1` [Example 39, (2S)-cyclohexyl[(4-{[({1-[5-(hydroxycarbamoyl)pyrimidin-2-yl]piperidin-4-yl}methyl)amino]methyl}benzyl)amino]acetic acid]: the IC50 in assay [1] is below 100 nM.

Regarding `CC(C)(C)OC[C@H](NCc1ccc(CNCC2CCN(c3ncc(C(=O)NO)cn3)CC2)cc1)C(=O)OC1CCCC1` [Example 40], the IC50 with U937 cells was below 330 nM; with HUT cells, below 330 nM; in the assay on HeLa cells, 331 to 3300 nM.

With `O=C(NO)c1cnc(N2CCC(CNCc3ccc(CN[C@H](C(=O)OC4CCCC4)c4ccccc4)cc3)CC2)nc1` [Example 42], the IC50 with U937 cells, in the assay with HUT cells and in the assay on HeLa cells was below 330 nM in each case.

As for `O=C(NO)c1cnc(N2CCC(CNCc3ccc(CN[C@@H](CO)C(=O)OC4CCCC4)cc3)CC2)nc1` [Example 44], the IC50 was below 330 nM in the assay on U937 cells, below 330 nM in the assay with HUT cells and 331 to 3300 nM in the assay on HeLa cells.

For `O=C(NO)c1cnc(N2CCC(CNCC3CCC(CN[C@H](C(=O)OC4CCCC4)C4CCCCC4)CC3)CC2)nc1` (stereo partly drawn) [Example 46, Cyclopentyl (2S)-cyclohexyl{[(4-{[({1-[5-(hydroxycarbamoyl)pyrimidin-2-yl]piperidin-4-yl}methyl)amino]methyl}cyclohexyl)methyl]amino}acetate], the IC50 in assay [1] was 101 to 1000 nM; with U937 cells, 331 to 3300 nM; in the assay with HUT cells, 331 to 3300 nM.

Regarding `O=C(NO)c1cnc(N2CCC(CNCC3CCC(CN[C@H](C(=O)O)C4CCCCC4)CC3)CC2)nc1` (stereo partly drawn) [Example 47, (2S)-cyclohexyl{[(4-{[({1-[5-(hydroxycarbamoyl)pyrimidin-2-yl]piperidin-4-yl}methyl)amino]methyl}cyclohexyl)methyl]amino}acetic acid], in assay [1], the IC50 is below 100 nM.

On to `CC(C)C[C@H](NC1CCN(c2ccc(C(=O)NO)cc2)CC1)C(=O)OC1CCCC1` [Example 48, Cyclopentyl N-{1-[4-(hydroxycarbamoyl)phenyl]piperidin-4-yl}-L-leucinate], for which the results for the IC50 (in assay [1]; in the assay on U937 cells; in the assay with HUT cells) were above 1000 nM, 331 to 3300 nM and above 3300 nM, respectively.

Turning to `CC(C)C[C@H](NC1CCN(c2ccc(C(=O)NO)cc2)CC1)C(=O)O` [Example 49, N-{1-[4-(hydroxycarbamoyl)phenyl]piperidin-4-yl}-L-leucine], the IC50 in assay [1] is above 1000 nM.

Turning to `O=C(NO)c1ccc(N2CCC(CN[C@H](C(=O)OC3CCCC3)C3CCCCC3)CC2)cc1` [Example 50, Cyclopentyl (2S)-cyclohexyl[({1-[4-(hydroxycarbamoyl)phenyl]piperidin-4-yl}methyl)amino]acetate], the IC50 was above 1000 nM in assay [1], above 3300 nM in the assay on U937 cells and above 3300 nM with HUT cells.

In turn, `O=C(NO)c1ccc(N2CCC(CN[C@H](C(=O)O)C3CCCCC3)CC2)cc1` [Example 51, (2S)-cyclohexyl[({1-[4-(hydroxycarbamoyl)phenyl]piperidin-4-yl}methyl)amino]acetic acid] had an IC50 in assay [1] above 1000 nM.

On to `O=C(NO)c1ccc(N2CCC(CNCc3ccc(CN[C@H](C(=O)OC4CCCC4)C4CCCCC4)cc3)CC2)cc1` [Example 52, Cyclopentyl (2S)-cyclohexyl[(4-{[({1-[4-(hydroxycarbamoyl)phenyl]piperidin-4-yl}methyl)amino]methyl}benzyl)amino]acetate], for which the IC50 was above 1000 nM in assay [1], 331 to 3300 nM in the assay on U937 cells and 331 to 3300 nM with HUT cells.

Turning to `O=C(NO)c1ccc(N2CCC(CNCC3CCC(CN[C@H](C(=O)OC4CCCC4)C4CCCCC4)CC3)CC2)cc1` (stereo partly drawn) [Example 54, cyclopentyl (2S)-cyclohexyl{[(4-{[({1-[4-(hydroxycarbamoyl)phenyl]piperidin-4-yl}methyl)amino]methyl}cyclohexyl)methyl]amino}acetate], the IC50 was above 1000 nM in assay [1], 331 to 3300 nM with U937 cells and 331 to 3300 nM with HUT cells.

As to `O=C(NO)c1ccc(N2CCC(CNCC3CCC(CN[C@H](C(=O)O)C4CCCCC4)CC3)CC2)cc1` (stereo partly drawn) [Example 55, (2S)-cyclohexyl{[(4-{[({1-[4-(hydroxycarbamoyl)phenyl]piperidin-4-yl}methyl)amino]methyl}cyclohexyl)methyl]amino}acetic acid], the IC50 in assay [1] is above 1000 nM.

As usually defined, the IC50 is the concentration at which inhibition is half-maximal. Low values mean greater potency, high ones weaker potency.
